The test system of one experiment is S. suis P1/7. Nature of the experiment: Resistance to antibiotics (MIC-based class). The class given is cell-based, Streptococcus suis. As to conditions: strain P1/7; resistant if MIC ≥ 400 μg/ml. From the text: (§1) Table 1 Strains of S. suis used in this study, their characteristics and susceptibility to S. suis 65. | column: Resistance to antibiotics ^1 / Erythromycin; Resistance to antibiotics ^1 / Tetracycline

The next experiment deals with S. suis LPH4. The experiment can be described thus: Resistance to antibiotics (MIC-based class). The conditions noted are these: strain LPH4; resistant if MIC ≥ 400 μg/ml. The class given is cell-based, Streptococcus suis.
Source text: as §1

The subject of the next experiment is S. suis 1054471. The experiment can be described thus: Resistance to antibiotics (MIC-based class). The experiment is classed as cell-based, Streptococcus suis. As to conditions: strain 1054471; resistant if MIC ≥ 400 μg/ml.
Source text: as §1

The next experiment relates to S. suis MNCM06. The experiment can be described thus: Resistance to antibiotics (MIC-based class). The experiment is classed as cell-based, Streptococcus suis. As to conditions: strain MNCM06; resistant if MIC ≥ 400 μg/ml.
Source text: as §1

Another experiment deals with S. suis MNCM01. Nature of the experiment: Resistance to antibiotics (MIC-based class). The conditions noted are these: strain MNCM01; resistant if MIC ≥ 400 μg/ml. The experiment is classed as cell-based, Streptococcus suis.
Source text: as §1

The next experiment deals with S. suis 1088563. The experiment can be described thus: Resistance to antibiotics (MIC-based class). The conditions noted are these: strain 1088563; resistant if MIC ≥ 400 μg/ml. The experiment is classed as cell-based, Streptococcus suis.
Source text: as §1

Another experiment concerns S. suis 31533. The experiment can be described thus: Resistance to antibiotics (MIC-based class). The experiment is classed as cell-based, Streptococcus suis. As to conditions: strain 31533; resistant if MIC ≥ 400 μg/ml.
Source text: as §1

The subject of another experiment is S. suis 65. The experiment can be described thus: Antibiotic susceptibility of S. suis 65 (broth microdilution MIC). The experiment is classed as cell-based. As to conditions: Streptococcus suis; S. suis 65, THB, 96-well plates, 24 h at 37°C, growth recorded visually; three independent experiments. Here is the method:
The susceptibility of S. suis 65 to antibiotics (amoxicillin, ceftiofur, and penicillin G) was determined as follows. Briefly, a 24-h bacterial culture in THB was diluted in fresh broth medium to obtain an optical density at 660 nm (OD660) of 0.2. Equal volumes (100 μl) of bacteria and serial dilutions of antibiotics in THB were mixed in the wells of 96-well plates. Wells with no bacteria or no antibiotics were used as controls. Following a 24-h incubation at 37°C, bacterial growth was recorded visually. Minimal inhibitory concentration (MIC) values (μg/ml) were expressed as the lowest concentration at which no growth occurred. The MIC values were determined in three independent experiments.

The MIC is the lowest concentration that inhibits growth of the organism. Low readings indicate inhibition by little substance, high ones a need for much substance.

SMILES strings stand for the structures. ≈ marks a conversion by molar mass, not a printed value.

Turning to `CC[C@H]1OC(=O)[C@H](C)[C@@H](O[C@H]2C[C@@](C)(OC)[C@@H](O)[C@H](C)O2)[C@H](C)[C@@H](O[C@@H]2O[C@H](C)C[C@H](N(C)C)[C@H]2O)[C@](C)(O)C[C@@H](C)C(=O)[C@H](C)[C@@H](O)[C@]1(C)O` [Erythromycin], the Resistance to antibiotics entry in the experiment on S. suis P1/7 was “Sensitive (A strain was considered resistant if the MIC was ≥ 400 μg/ml)”; with S. suis LPH4 it was “Resistant (A strain was considered resistant if the MIC was ≥ 400 μg/ml)”; in the experiment on S. suis 1054471, “Sensitive (A strain was considered resistant if the MIC was ≥ 400 μg/ml)”; in the experiment with S. suis MNCM06 it was “Resistant (A strain was considered resistant if the MIC was ≥ 400 μg/ml)”; with S. suis MNCM01, “Resistant (A strain was considered resistant if the MIC was ≥ 400 μg/ml)”; in the experiment on S. suis 1088563, “Resistant (A strain was considered resistant if the MIC was ≥ 400 μg/ml)”. Moreover, in the experiment with S. suis 31533, the Resistance to antibiotics entry is reported as “Sensitive (A strain was considered resistant if the MIC was ≥ 400 μg/ml)”.
In the case of `CN(C)[C@@H]1C(O)=C(C(N)=O)C(=O)[C@@]2(O)C(O)=C3C(=O)c4c(O)cccc4[C@@](C)(O)[C@H]3C[C@@H]12` [Tetracycline], the Resistance to antibiotics result with S. suis P1/7 is recorded as “Sensitive (A strain was considered resistant if the MIC was ≥ 400 μg/ml)”; in the experiment with S. suis LPH4, “Resistant (A strain was considered resistant if the MIC was ≥ 400 μg/ml)”; in the experiment with S. suis 1054471 it was “Resistant (A strain was considered resistant if the MIC was ≥ 400 μg/ml)”; in the experiment on S. suis MNCM06, “Resistant (A strain was considered resistant if the MIC was ≥ 400 μg/ml)”; in the experiment on S. suis MNCM01, “Resistant (A strain was considered resistant if the MIC was ≥ 400 μg/ml)”; with S. suis 1088563 it was “Resistant (A strain was considered resistant if the MIC was ≥ 400 μg/ml)”. For the same compound, in the experiment with S. suis 31533, the Resistance to antibiotics entry is recorded as “Sensitive (A strain was considered resistant if the MIC was ≥ 400 μg/ml)”.
In turn, `CC1(C)S[C@@H]2[C@H](NC(=O)[C@H](N)c3ccc(O)cc3)C(=O)N2[C@H]1C(=O)O` [amoxicillin] had an MIC in the experiment on S. suis 65 of 4.9 ng/mL (≈ 0.0134 µM).
In the experiment with S. suis 65, `CO/N=C(\C(=O)N[C@@H]1C(=O)N2C(C(=O)O)=C(CSC(=O)c3ccco3)CS[C@H]12)c1csc(N)n1` [ceftiofur] had an MIC of 9.8 ng/mL (≈ 0.0187 µM).
Regarding `CC1(C)S[C@@H]2[C@H](NC(=O)Cc3ccccc3)C(=O)N2[C@H]1C(=O)O` [penicillin G], in the experiment on S. suis 65, the MIC amounted to 9.8 ng/mL (≈ 0.0293 µM).

The values above are taken from article PMC4692507, “Purification and Characterization of Suicin 65, a Novel Class I Type B Lantibiotic Produced by Streptococcus suis” (PLoS ONE, 2015).
